The values that follow are results of earlier work, collected in patent EP3645498B1, “PROCESS FOR RECOVERING ACETIC ACID FROM AN AQUEOUS STREAM COMPRISING THE SAME” (Nouryon Chemicals International B.V., priority 2017, dated 2019).

Read-outs that look alike come from different tables or passages of the source.

As to `CCCCCCCCCCCO` [1 -Undecanol, 1-undecanol], under “result in words”, the Solubility in water result was “Insoluble^[10]”.
Consider `CCCCCCCCCCCCc1ccccc1` [Phenyldodecane, phenyldodecane], for which the Solubility in water result (result in words) was “Insoluble^[11]”.
For the compound `CCCCCCCCN(CCCCCCCC)CCCCCCCC` [TOA, trioctylamine], the Solubility in water was below 5ppm^[2].
Turning to `CCCCCCCCP(=O)(CCCCCCCC)CCCCCCCC` [TOPO, tri-octylphosphine oxide], the Solubility in water entry (result in words) was “Insoluble^[5]”.
For the compound `CCCCCCCCCCCCCC` [n-Tetradecane, n-tetradecane], the Solubility in water was 0.0022 mg/L^[8].
